According to patent publication US20060188913A1, “Methods and products for enhancing immune responses using imidazoquinoline compounds” (University of Iowa Research Foundation, priority 2001, published 2006):

Assays:
hTLR9 = molecular target: T1, hTLR9 (Homo sapiens, UniProt Q9NR96, H530R/Q688R); experiment: NF-kappa B luciferase activation in stably transfected 293-TLR9-Luc cells; assay type: cell-based
T1 construct: 293-TLR9-Luc cells contain a genomic copy of the hTLR9 open reading frame and the NF-kappa B-luciferase cassette; expressed in transfected cells; host or cells: 293-TLR9-Luc (stably transfected human embryo kidney 293 cells)
T1 sequence (Q9NR96 26-1032 H530R/Q688R): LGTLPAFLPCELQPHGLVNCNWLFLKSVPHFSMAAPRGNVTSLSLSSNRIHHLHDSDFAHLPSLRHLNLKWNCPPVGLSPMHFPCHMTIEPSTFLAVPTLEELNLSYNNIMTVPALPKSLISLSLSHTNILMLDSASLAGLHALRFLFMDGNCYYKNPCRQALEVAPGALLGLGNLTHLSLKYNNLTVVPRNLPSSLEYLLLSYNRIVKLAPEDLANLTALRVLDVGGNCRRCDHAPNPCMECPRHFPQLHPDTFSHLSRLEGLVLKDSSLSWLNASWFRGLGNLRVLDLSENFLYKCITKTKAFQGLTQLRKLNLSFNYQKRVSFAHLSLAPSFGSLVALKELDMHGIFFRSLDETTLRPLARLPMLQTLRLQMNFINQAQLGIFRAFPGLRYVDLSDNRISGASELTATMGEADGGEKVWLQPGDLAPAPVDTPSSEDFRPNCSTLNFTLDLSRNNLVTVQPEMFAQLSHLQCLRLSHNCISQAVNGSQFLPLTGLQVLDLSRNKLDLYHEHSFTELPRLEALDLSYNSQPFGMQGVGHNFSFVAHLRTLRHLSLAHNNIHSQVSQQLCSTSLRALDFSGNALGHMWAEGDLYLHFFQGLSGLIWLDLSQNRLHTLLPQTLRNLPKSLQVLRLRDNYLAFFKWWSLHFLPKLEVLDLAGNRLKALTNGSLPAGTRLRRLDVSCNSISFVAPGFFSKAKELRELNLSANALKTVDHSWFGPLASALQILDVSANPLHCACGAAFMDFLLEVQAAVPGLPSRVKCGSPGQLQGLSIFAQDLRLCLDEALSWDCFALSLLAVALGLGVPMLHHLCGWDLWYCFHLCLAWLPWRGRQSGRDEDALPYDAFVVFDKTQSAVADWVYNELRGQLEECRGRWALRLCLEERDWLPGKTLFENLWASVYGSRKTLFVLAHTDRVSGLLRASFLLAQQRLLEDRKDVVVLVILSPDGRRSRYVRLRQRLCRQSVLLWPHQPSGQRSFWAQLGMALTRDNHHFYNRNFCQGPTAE
Procedure: Cells used for transfections were 293T (human embryo kidney cells, T-antigen transfected) or 293-TLR9-Luc (stable transfectants, human embryo kidney cells expressing the human TLR9 receptor and containing a genomic NF-kappa B-luciferase cassette).
Stimulation was performed 24 h after transfection. Medium of the cells was reduced to 1 ml (without medium change) and cells were stimulated with indicated amounts of R-848, LPS, ODN 8954, 2006 and IL-1 beta for 16 h.
Cell extracts were prepared by lysing the cells in 100 μl reporter lysis buffer using the freeze-thaw method. NF-kappa B stimulation was measured through luciferase activity (Promega). All data were normalized for beta-gal expression. Stimulation indices were calculated in reference to luciferase activity of medium without addition of ODN.
Since R-848 has immune modulatory properties, this experiment examined whether R-848-mediated immune responses are hTLR9-dependent. Cells stably transfected with hTLR9 and a NF-kappa B reporter construct (293-TLR-Luc cells) were incubated for 16 hours with IL-1, CpG ODN 2006, control non-CpG ODN 1982 (5′ […] 3′, SEQ ID NO:3), or increasing amounts of R-848. NF-kappa B activation was determined by measurement of luciferase activity. Activity is given in x-fold activation compared to luciferase activity in medium control.

human PBMC = experiment: IP-10 secretion by human PBMC (ELISA); assay type: cell-based; conditions: 48 hours, ODN 0.2-3.0 μg/ml versus R-848 0.01-1.0 μg/ml, FIG. 6A
Procedure: This experiment investigated the induction of the Th1 cytokine IFN-gamma as well as the Th1-related chemokine IP-10 (IFN-gamma inducible protein). Unfractionated human PBMC from three donors were incubated for 48 hours in the presence of varying concentrations of R-848 (0.01-1.0 μg/ml), varying concentrations of CpG ODN 2006 (0.2-3.0 μg/ml), varying concentrations of negative control ODN 5177 (0.2-3.0 μg/ml), SEB (50 ng/ml), or media alone, and then the concentrations of IP-10 and IFN-gamma in the supernatant were measured by ELISA.
In FIG. 6B, the combined effects of R-848 and CpG ODN (e.g., #2006) on IP-10 secretion are shown. Human PBMCs from three different donors were incubated for 48 hours with the indicated concentrations of ODNs and R-848, either individually or together. Supernatants were harvested and IP-10 was measured by ELISA. The data represent mean cytokine amounts.

NF-kappa B activation (x-fold activation compared to luciferase activity in medium control) (hTLR9; 293-TLR-Luc cells, 16 hours, 1 to 12 μg/ml): 10- to 30 fold
Substance: CpG ODN 2006
hTLR9-mediated NF-kappa B activation (in words) (hTLR9; cells expressing hTLR9 alone, 293-TLR-Luc with pcDNA (empty vector)): hTLR9-mediated activation of NF-kappa B by CpG ODN 2006
IP-10 induction (human PBMC): induced similar amounts of IP-10 compared to R-848
